Reference: ChEMBL document CHEMBL4145521, “Regioselective synthesis of 3,4-diaryl-5-unsubstituted isoxazoles, analogues of natural cytostatic combretastatin A4” (Eur J Med Chem, 2018)

Experiments:
Assay type in all cases: functional
CCRF-CEM = test: Cytotoxicity against human CCRF-CEM cells assessed as cell growth at 0.01 uM incubated for 48 hrs by sulforhodamine B assay relative to control; conditions: read-out: Activity
LOX IMVI = test: Cytotoxicity against human LOXIMVI cells assessed as cell growth at 10 uM incubated for 48 hrs by sulforhodamine B assay relative to control; conditions: read-out: Activity
SF-268 = test: Cytotoxicity against human SF268 cells assessed as cell growth at 0.1 uM incubated for 48 hrs by sulforhodamine B assay relative to control; conditions: SF-268, 48 h, read-out: Activity
SK-MEL-2 = test: Cytotoxicity against human SK-MEL-2 cells incubated for 48 hrs by sulforhodamine B assay; conditions: SK-MEL-2, 48 h
MOLT-4 [1] = test: Cytotoxicity against human MOLT4 cells assessed as cell growth at 1 uM incubated for 48 hrs by sulforhodamine B assay relative to control; conditions: MOLT-4, 48 h, read-out: Activity
OVCAR-5 = test: Cytotoxicity against human OVCAR5 cells assessed as cell growth at 1 uM incubated for 48 hrs by sulforhodamine B assay relative to control; conditions: OVCAR-5, 48 h, read-out: Activity
HCT-15 = test: Cytotoxicity against human HCT15 cells assessed as cell growth at 100 uM incubated for 48 hrs by sulforhodamine B assay relative to control; conditions: HCT-15, 48 h, read-out: Activity
SK-MEL-28 = test: Cytotoxicity against human SK-MEL-28 cells assessed as cell growth at 0.1 uM incubated for 48 hrs by sulforhodamine B assay relative to control; conditions: SK-MEL-28, 48 h, read-out: Activity
MDA-MB-231 = test: Cytotoxicity against human MDA-MB-231 cells assessed as cell growth at 10 uM incubated for 48 hrs by sulforhodamine B assay relative to control; conditions: MDA-MB-231, 48 h, read-out: Activity
RPMI-8226 [2] = test: Cytotoxicity against human RPMI8226 cells assessed as cell growth at 10 uM incubated for 48 hrs by sulforhodamine B assay relative to control; conditions: RPMI-8226, 48 h, read-out: Activity
NCI-H23 = test: Cytotoxicity against human NCI-H23 cells incubated for 48 hrs by sulforhodamine B assay; conditions: NCI-H23, 48 h
T47D [3] = test: Cytotoxicity against human T47D cells assessed as cell growth at 0.1 uM incubated for 48 hrs by sulforhodamine B assay relative to control; conditions: read-out: Activity
RXF 393 = test: Cytotoxicity against human RXF393 cells assessed as cell growth at 100 uM incubated for 48 hrs by sulforhodamine B assay relative to control; conditions: RXF 393, 48 h, read-out: Activity
COLO 205 = test: Cytotoxicity against human COLO205 cells assessed as cell growth at 100 uM incubated for 48 hrs by sulforhodamine B assay relative to control; conditions: COLO 205, 48 h, read-out: Activity
SR = test: Cytotoxicity against human SR cells assessed as cell growth at 1 uM incubated for 48 hrs by sulforhodamine B assay relative to control; conditions: read-out: Activity
HOP-92 = test: Cytotoxicity against human HOP92 cells incubated for 48 hrs by sulforhodamine B assay; conditions: HOP-92, 48 h
BT-549 [4] = test: Cytotoxicity against human BT549 cells incubated for 48 hrs by sulforhodamine B assay; conditions: BT-549, 48 h
SW-620 = test: Cytotoxicity against human SW620 cells assessed as cell growth at 1 uM incubated for 48 hrs by sulforhodamine B assay relative to control; conditions: SW-620, 48 h, read-out: Activity
A549 = test: Cytotoxicity against human A549/ATCC cells assessed as cell growth at 1 uM incubated for 48 hrs by sulforhodamine B assay relative to control; conditions: A549, 48 h, read-out: Activity
DU-145 = test: Cytotoxicity against human DU145 cells incubated for 48 hrs by sulforhodamine B assay; conditions: DU-145, 48 h
HCT-116 = test: Cytotoxicity against human HCT116 cells assessed as cell growth at 100 uM incubated for 48 hrs by sulforhodamine B assay relative to control; conditions: HCT-116, 48 h, read-out: Activity
MOLT-4 [5] = test: Cytotoxicity against human MOLT4 cells assessed as cell growth at 0.01 uM incubated for 48 hrs by sulforhodamine B assay relative to control; conditions: MOLT-4, 48 h, read-out: Activity
NCI/ADR-RES [6] = test: Cytotoxicity against human NCI/ADR-RES cells assessed as cell growth at 0.01 uM incubated for 48 hrs by sulforhodamine B assay relative to control; conditions: read-out: Activity
RPMI-8226 [7] = test: Cytotoxicity against human RPMI8226 cells incubated for 48 hrs by sulforhodamine B assay; conditions: RPMI-8226, 48 h
RPMI-8226 [8] = test: Cytotoxicity against human RPMI8226 cells assessed as cell growth at 0.1 uM incubated for 48 hrs by sulforhodamine B assay relative to control; conditions: RPMI-8226, 48 h, read-out: Activity
HCC 2998 = test: Cytotoxicity against human HCC2998 cells assessed as cell growth at 0.1 uM incubated for 48 hrs by sulforhodamine B assay relative to control; conditions: HCC 2998, 48 h, read-out: Activity
NCI/ADR-RES [9] = test: Cytotoxicity against human NCI/ADR-RES cells assessed as cell growth at 10 uM incubated for 48 hrs by sulforhodamine B assay relative to control; conditions: read-out: Activity
MDA-MB-468 = test: Cytotoxicity against human MDA-MB-468 cells assessed as cell growth at 10 uM incubated for 48 hrs by sulforhodamine B assay relative to control; conditions: MDA-MB-468, 48 h, read-out: Activity
BT-549 [10] = test: Cytotoxicity against human BT549 cells assessed as cell growth at 0.1 uM incubated for 48 hrs by sulforhodamine B assay relative to control; conditions: BT-549, 48 h, read-out: Activity
T47D [11] = test: Cytotoxicity against human T47D cells assessed as cell growth at 10 uM incubated for 48 hrs by sulforhodamine B assay relative to control; conditions: read-out: Activity
BT-549 [12] = test: Cytotoxicity against human BT549 cells assessed as cell growth at 1 uM incubated for 48 hrs by sulforhodamine B assay relative to control; conditions: BT-549, 48 h, read-out: Activity
[13] = read-out: LC50 (the source's name)
[14] = read-out: pLC50 (the source's name) (converted)

`COc1ccc(-c2nocc2-c2cc(OC)c(OC)c(OC)c2)cc1` gave a growth at 0.01 µM (CCRF-CEM) of 111%, a growth at 10 µM (LOX IMVI) of 21% and a growth at 0.1 µM (SF-268) of 63%. For the same molecule, the GI50 (SK-MEL-2; read-out: GI50) was 0.0664 µM, the CC50 (SK-MEL-2; [13]) was > 100 µM and the TGI (SK-MEL-2; read-out: TGI) was 69.2 µM. The GI50 (SK-MEL-2; read-out: pGI50 (converted)) was 0.0661 µM, the CC50 (SK-MEL-2; [14]) was > 100 µM and the TGI (SK-MEL-2; read-out: pTGI (converted)) was 69.2 µM. For the same molecule, the growth at 1 µM (MOLT-4 [1]) was 44%, the growth at 1 µM (OVCAR-5) was 53% and the growth at 100 µM (HCT-15) was 1%. For the same molecule, the growth at 0.1 µM (SK-MEL-28) was 61%, the growth at 10 µM (MDA-MB-231) was 17% and the growth at 10 µM (RPMI-8226 [2]) was 16%. For the same molecule, the GI50 (NCI-H23; read-out: GI50) was 0.283 µM, the CC50 (NCI-H23; [13]) was > 100 µM and the TGI (NCI-H23; read-out: TGI) was 74.9 µM. The GI50 (NCI-H23; read-out: pGI50 (converted)) was 0.282 µM, the CC50 (NCI-H23; [14]) was > 100 µM and the TGI (NCI-H23; read-out: pTGI (converted)) was 74.1 µM. The growth at 0.1 µM (T47D [3]) was 43%, the growth at 100 µM (RXF 393) was -2% and the growth at 100 µM (COLO 205) was -40%. The growth at 1 µM (SR) was 30%, the GI50 (HOP-92; read-out: GI50) was 0.678 µM and the LC50 (50% lethal concentration) (HOP-92; read-out: LC50) was > 100 µM. For the same molecule, the TGI (HOP-92; read-out: TGI) was 50.2 µM, the GI50 (HOP-92; read-out: pGI50 (converted)) was 0.676 µM and the LC50 (50% lethal concentration) (HOP-92; read-out: pLC50 (converted)) was > 100 µM. The TGI (HOP-92; read-out: pTGI (converted)) was 50.1 µM, the GI50 (BT-549 [4]; read-out: GI50) was 0.176 µM and the CC50 (BT-549 [4]; [13]) was > 100 µM. The TGI (BT-549 [4]; read-out: TGI) was 18.9 µM, the GI50 (BT-549 [4]; read-out: pGI50 (converted)) was 0.178 µM and the CC50 (BT-549 [4]; [14]) was > 100 µM. The TGI (BT-549 [4]; read-out: pTGI (converted)) was 19.1 µM, the growth at 1 µM (SW-620) was 21% and the growth at 1 µM (A549) was 28%. For the same molecule, the GI50 (DU-145; read-out: GI50) was 0.244 µM, the CC50 (DU-145; [13]) was > 100 µM and the TGI (DU-145; read-out: TGI) was > 100 µM. For the same molecule, the GI50 (DU-145; read-out: pGI50 (converted)) was 0.245 µM, the CC50 (DU-145; [14]) was > 100 µM and the TGI (DU-145; read-out: pTGI) was > 100 µM. It also gave a growth at 100 µM (HCT-116) of -29%, a growth at 0.01 µM (MOLT-4 [5]) of 99% and a growth at 0.01 µM (NCI/ADR-RES [6]) of 92%. For the same molecule, the GI50 (RPMI-8226 [7]; read-out: GI50) was 0.44 µM, the CC50 (RPMI-8226 [7]; [13]) was > 100 µM and the TGI (RPMI-8226 [7]; read-out: TGI) was 30.5 µM. The GI50 (RPMI-8226 [7]; read-out: pGI50 (converted)) was 0.437 µM, the CC50 (RPMI-8226 [7]; [14]) was > 100 µM and the TGI (RPMI-8226 [7]; read-out: pTGI (converted)) was 30.2 µM. The growth at 0.1 µM (RPMI-8226 [8]) was 82%, the growth at 0.1 µM (HCC 2998) was 62% and the growth at 10 µM (NCI/ADR-RES [9]) was 9%. The growth at 10 µM (MDA-MB-468) was 3%, the growth at 0.1 µM (BT-549 [10]) was 56% and the growth at 10 µM (T47D [11]) was 52%. For the same molecule, the growth at 1 µM (BT-549 [12]) was 33%.
